Data from US10611751B2, “Dopamine D1 receptor positive allosteric modulators” (Eli Lilly and Company, priority 2018, dated 2020).

Biological target: human D1 receptor (Homo sapiens (Human), UniProt P21728)
Experiment: Human D1 Receptor PAM Assay (cAMP HTRF, potentiator mode with EC20 dopamine)
Type: cell-based
Details: for EC50: HEK293 cells expressing human D1 receptor, 12 nM dopamine (EC20), cAMP, read-out: Abs EC50; for Emax: fitted top of curve, 0% = EC20 dopamine, 100% = 5 μM dopamine, read-out: % Top (% Potentiation)
From the text: The PAM activity of the compounds of the present invention may be measured essentially as described in Svensson et al., An Allosteric Potentiator of the Dopamine D1 Receptor Increases Locomotor Activity in Human D1 Knock-in Mices without Casusing Stereotypy or Tachyphylaxis. J. Pharmacol. Exp. Ther. (2017) 360:117-128.
More specifically, HEK293 cells that stably express the human D1 receptor (Accession number NM_000794) are generated by gene transduction using the pBABE-bleo retroviral vector and selected with Zeocin™ (InvivoGen). At approximately 80% confluency, the cells are harvested using TrypLE™ Express (Gibco), suspended in FBS plus 8% DMSO, and stored in liquid nitrogen. On the day of the assay, cells are thawed and resuspended in STIM buffer (Hanks Balanced Salt Solution supplemented with 0.1% BSA, 20 mM HEPES, 500 μM IBMX, and 100 μM ascorbic acid).
Test compound is serially diluted (1:2) with DMSO into assay plates (ProxiPlate-384 Plus, PerkinElmer) using acoustic dispensing (Labcyte) to provide 20 concentrations for full response curves. […] Plates are incubated at room temperature for a total reaction time of 60 min.
cAMP production is quantified using HTRF® detection (Cisbio) according to the manufacturer's instructions. Generally, lysis buffer containing anti-cAMP cryptate (5 μL) and D2-conjugate (from HTRF® kit) (5 μL) is added to the wells, plates are incubated for an additional 60-90 min, and the time-resolved fluorescence is detected using an EnVision™ plate reader (PerkinElmer). Fluorescence data is converted to cAMP concentrations using a cAMP standard curve and analyzing using a 4-parameter non-linear logistic equation (Genedata Screener, version 13.0.5-standard). For potentiator mode concentration-response curves, results are expressed as percent of the window between a response at EC20 concentration of dopamine alone (normalized to 0%) and the maximum response to dopamine (defined by response to 5 μM dopamine, final concentration, normalized as 100%).
Absolute EC50 values are calculated based on the maximum and minimum responses of the control agonist (dopamine). The % Potentiation (% Top) is determined from the fitted top of the concentration response curve.

Sequence of human D1 receptor (P21728 whole entry): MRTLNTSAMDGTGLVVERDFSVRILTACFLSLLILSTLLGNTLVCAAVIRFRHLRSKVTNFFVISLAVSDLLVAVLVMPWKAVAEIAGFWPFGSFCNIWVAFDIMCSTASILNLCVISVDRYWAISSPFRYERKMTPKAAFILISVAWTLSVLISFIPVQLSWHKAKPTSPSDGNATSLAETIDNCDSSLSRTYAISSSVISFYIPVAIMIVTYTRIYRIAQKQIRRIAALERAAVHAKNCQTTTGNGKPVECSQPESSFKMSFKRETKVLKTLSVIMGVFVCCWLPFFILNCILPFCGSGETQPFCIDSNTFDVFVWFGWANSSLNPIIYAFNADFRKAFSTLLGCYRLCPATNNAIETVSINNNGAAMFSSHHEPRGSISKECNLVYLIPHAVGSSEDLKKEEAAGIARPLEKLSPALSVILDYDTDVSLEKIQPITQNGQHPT

SMILES | EC50 | Emax
CCn1cc(-c2cccc3c2C[C@H](CO)N(C(=O)Cc2c(Cl)cccc2Cl)[C@H]3C)cn1 [Example 2, 2-(2,6-dichlorophenyl)-1-((1S,3R)-5-(1-ethyl-1H-pyrazol-4-yl)-3-(hydroxymethyl)-1-methyl-3,4-dihydroisoquinolin-2(1H)-yl)ethan-1-one] | 172 nM | 91.2%
C[C@H]1c2cccc(-c3cnn(C4CC4)c3)c2C[C@H](CO)N1C(=O)Cc1c(Cl)cccc1Cl [Example 3, 1-((1S,3R)-5-(1-cyclopropyl-1H-pyrazol-4-yl)-3-(hydroxymethyl)-1-methyl-3,4-dihydroisoquinolin-2(1H)-yl)-2-(2,6-dichlorophenyl)ethan-1-one] | 287 nM | 88.1%
C[C@H]1c2cccc(-c3cnn(CCO)c3)c2C[C@H](CO)N1C(=O)Cc1ccccc1Cl [Example 5, 1-((1S,3R)-5-(1-(2-(l1-oxidaneyl)ethyl)-1H-pyrazol-4-yl)-3-(hydroxymethyl)-1-methyl-3,4-dihydroisoquinolin-2(1H)-yl)-2-(2-chlorophenyl)ethan-1-one] | 18.3 nM | 79.1%
C[C@H]1c2cccc(-c3cnn(C4COC4)c3)c2C[C@H](CO)N1C(=O)Cc1c(F)cccc1Cl [Example 6, 2-(2-chloro-6-fluorophenyl)-1-((1S,3R)-3-(hydroxymethyl)-1-methyl-5-(1-(oxetan-3-yl)-1H-pyrazol-4-yl)-3,4-dihydroisoquinolin-2(1H)-yl)ethan-1-one] | 42.2 nM | 80.4%
C[C@H]1c2cccc(-c3cnn(C)c3)c2C[C@H](CO)N1C(=O)Cc1ccccc1Cl [Example 7, 2-(2-chlorophenyl)-1-((1S,3R)-3-(hydroxymethyl)-1-methyl-5-(1-methyl-1H-pyrazol-4-yl)-3,4-dihydroisoquinolin-2(1H)-yl)ethan-1-one] | 81.2 nM | 82.4%
C[C@H]1c2cccc(-c3cn[nH]c3)c2C[C@H](CO)N1C(=O)Cc1c(F)cccc1Cl [Example 9, 2-(2-chloro-6-fluorophenyl)-1-((1S,3R)-3-(hydroxymethyl)-1-methyl-5-(1H-pyrazol-4-yl)-3,4-dihydroisoquinolin-2(1H)-yl)ethan-1-one] | 28 nM | 81.5%
C[C@H]1c2cccc(-c3cn[nH]c3)c2C[C@H](CO)N1C(=O)Cc1c(F)cccc1F [Example 10, 2-(2,6-difluorophenyl)-1-((1S,3R)-3-(hydroxymethyl)-1-methyl-5-(1H-pyrazol-4-yl)-3,4-dihydroisoquinolin-2(1H)-yl)ethan-1-one] | 127 nM | 78.1%
C[C@H]1c2cccc(-c3cn[nH]c3)c2C[C@H](CO)N1C(=O)Cc1cc(F)ccc1Cl [Example 11, 2-(2-chloro-5-fluorophenyl)-1-((1S,3R)-3-(hydroxymethyl)-1-methyl-5-(1H-pyrazol-4-yl)-3,4-dihydroisoquinolin-2(1H)-yl)ethan-1-one] | 112 nM | 79.8%
C[C@H]1c2cccc(-c3cn[nH]c3)c2C[C@H](CO)N1C(=O)Cc1ccc(F)cc1Cl [Example 12, 2-(2-chloro-4-fluorophenyl)-1-((1S,3R)-3-(hydroxymethyl)-1-methyl-5-(1H-pyrazol-4-yl)-3,4-dihydroisoquinolin-2(1H)-yl)ethan-1-one] | 540 nM | 77.1%
C[C@H]1c2cccc(-c3cn[nH]c3)c2C[C@H](CO)N1C(=O)Cc1ccccc1F [Example 13, 2-(2-fluorophenyl)-1-((1S,3R)-3-(hydroxymethyl)-1-methyl-5-(1H-pyrazol-4-yl)-3,4-dihydroisoquinolin-2(1H)-yl)ethan-1-one] | 484 nM | 89.8%
C[C@H]1c2cccc(-c3cn[nH]c3)c2C[C@H](CO)N1C(=O)Cc1cccc(F)c1F [Example 14, 2-(2,3-difluorophenyl)-1-((1S,3R)-3-(hydroxymethyl)-1-methyl-5-(1H-pyrazol-4-yl)-3,4-dihydroisoquinolin-2(1H)-yl)ethan-1-one] | 677 nM | 72.6%
C[C@H]1c2cccc(-c3cn[nH]c3)c2C[C@H](CO)N1C(=O)Cc1cc(F)ccc1F [Example 15, 2-(2,5-difluorophenyl)-1-((1S,3R)-3-(hydroxymethyl)-1-methyl-5-(1H-pyrazol-4-yl)-3,4-dihydroisoquinolin-2(1H)-yl)ethan-1-one] | 836 nM | 75.5%
